What all share (format): in vivo
Data set [1] concerns maize. Put plainly: Example E1 pre-emergent safening test on maize (Tables E1 Marista, E2 Lorenzo). The settings on record: after 14 days. On the procedure:
The test plants were sown in seed trays under greenhouse conditions. A standard earth was used as the culture substrate. In a pre-emergent stage, the herbicides were applied both by themselves and in a mixture with safeners to the soil surface. The application was carried out with an aqueous suspension of the test substances, prepared from a 25% wettable powder (Example F3, b according to WO 97/34485) or from a suspension concentrate (Example F8 according to WO 97/34485), to achieve a field equivalent of 200 l/ha. The tests were evaluated after 14 days (100%=plants completely dead; 0%=no phytotoxic action on the plants).

Data set [2] relates to Monocotyledonous and dicotyledonous test plants. Put plainly: Example B1 herbicidal action, application pre-emergence (Table B1b). To be noted: 250 g/ha, evaluated after 4 weeks. In a few lines:
(§1)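 Visual damage rating, 10 = plant dead and 0 = unharmed, taken at 3 weeks for post-emergence and 4 weeks for pre-emergence treatment. Application by spray of formulated aqueous solution either immediately after sowing or at 8–9 days' growth, with mono- and dicot plants kept in a greenhouse.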

Data set [3] shares this test system. Put plainly: Example B1 herbicidal action, application post-emergence (Table B1a). The settings on record: 250 g/ha, evaluated after 3 weeks, scale 0-10. The procedure, abridged:
as §1

For data set [4], the system named is maize. Put plainly: Example F1 post-emergent safening test on maize (Table F1, Marista 11f). The settings on record: post-emergent (GS 11), after 28 days. On the procedure: The test plants were sown in containers under glasshouse conditions. A standard earth was used as the culture substrate. In a maize growth stage of one leaf (GS 11), the herbicides were applied both by themselves and in a mixture with safeners to the soil and leaf surface. The application was carried out with an aqueous suspension of the test substances, prepared from a 25% wettable powder (Example F3,b according to WO 97/34485) or a suspension concentrate (Example F8 according to WO 97/34485), to achieve a field equivalent of 200 l/ha. The tests were evaluated after 28 days (100%=plants completely dead; 0%=no phytotoxic action on the plants).

Molecules are shown by their SMILES.

Turning to `Cn1nc(C(F)(F)F)c(C(Cl)S(=O)(=O)C2=NOC(C)(C)C2)c1OCC(F)(F)F` (centres unmarked) [2.04], in data set [1] (herbicide alone 100 g/ha), the “phytotoxic action on maize (Lorenzo)” value is on record as 2.5% and the “phytotoxic action on maize (Marista)” value stood at 10%. In addition, in data set [1] (herbicide alone 200 g/ha), the “phytotoxic action on maize (Lorenzo)” value came out at 17.5% and the “phytotoxic action on maize (Marista)” value was 15%. In data set [2], the “herbicidal action (damage rating 0-10), Amaranthus” value was found to be 10; the “herbicidal action (damage rating 0-10), Digitaria” value is reported as 10; the “herbicidal action (damage rating 0-10), Panicum” value amounted to 10; the “herbicidal action (damage rating 0-10), Setaria” value was 10. For the same compound, in data set [2], the “herbicidal action (damage rating 0-10), Sida” value was determined as 8. In data set [3], the “herbicidal damage rating, Abutilon” value was found to be 7; the “herbicidal damage rating, Amaranthus” value worked out at 4; the “herbicidal damage rating, Digitaria” value is 4; the “herbicidal damage rating, Panicum” value was 8. Moreover, in data set [3], the “herbicidal damage rating, Setaria” value is listed as 6 and the “herbicidal damage rating, Sida” value turned out to be 6.

Turning to `Cn1nc(C(F)(F)F)c(C(Br)S(=O)(=O)C2=NOC(C)(C)C2)c1OCC(F)(F)F` (centres unmarked) [2.10], the “phytotoxic action on maize (Marista 11f)” value in data set [4] (herbicide alone 37.5 g/ha) turned out to be 20%. Besides, the “phytotoxic action on maize (Marista 11f)” value in data set [4] (herbicide alone 75 g/ha) is listed as 50%. In addition, the “phytotoxic action on maize (Marista 11f)” value in data set [4] (herbicide alone 150 g/ha, 100%=plants completely dead) was determined as 75%. Further, in data set [2], the “herbicidal action (damage rating 0-10), Amaranthus” value was 10; the “herbicidal action (damage rating 0-10), Digitaria” value turned out to be 10; the “herbicidal action (damage rating 0-10), Panicum” value worked out at 10; the “herbicidal action (damage rating 0-10), Setaria” value is 10. Besides, in data set [2], the “herbicidal action (damage rating 0-10), Sida” value amounted to 8. In data set [3], the “herbicidal damage rating, Abutilon” value was determined as 6; the “herbicidal damage rating, Amaranthus” value was determined as 8; the “herbicidal damage rating, Digitaria” value is recorded as 6; the “herbicidal damage rating, Panicum” value is recorded as 7. Besides, in data set [3], the “herbicidal damage rating, Setaria” value stood at 5 and the “herbicidal damage rating, Sida” value worked out at 4.

These data come from patent US8680290B2, “Isoxazoline derivatives and their use as herbicides” (Syngenta Limited, priority 2004, dated 2014).
